In brackets after ≈: the same amount, converted by molar mass. Activity calls are given as the source filed them. The calls are words filed in the database; no cut-off is given here.
Experiments:
[1] = target: T1, Katanin p60 ATPase-containing subunit A1 (Homo sapiens, UniProt O75449); assay: Binding affinity to C-terminal human Katanin p60 (111 to 491 residues) expressed in Escherichia coli Rosetta (DE3) assessed as dissociation constant by SPR analysis
[2] = target: T1, Katanin p60 ATPase-containing subunit A1; assay: Binding affinity to N-terminal human Katanin p60 (8 to 229 residues) expressed in Escherichia coli Rosetta (DE3) assessed as dissociation constant by SPR analysis
[3] = target: T1, Katanin p60 ATPase-containing subunit A1; assay: Induction of thermal stabilization in N-terminal human Katanin p60 (8 to 229 residues) expressed in Escherichia coli Rosetta (DE3) at 10 uM by thermal shift assay
MCF7 [4] = assay: Effect on katanin p60 protein level in katanin knockdown human MCF7 cells measured after 48 to 72 hrs by immunoblot analysis; type: functional, cell-based; conditions: time 48-72 hrs
Tubulin (Homo sapiens) = Tubulin (Homo sapiens) (UniProt P68371+Q9H4B7+P0DPH7+P68366+Q13509+Q71U36+P04350+Q3ZCM7+P07437+P68363+Q9BQE3+Q6PEY2+Q13885+Q9BVA1+Q9BUF5); assay: Inhibition of microtubule assembly in human MCF7 cells assessed as appearance of disorganized fibrous microtubule structure at 1 to 10 nM incubated for 24 hrs by immunofluorescence assay; type: cell-based; conditions: dose 1-10 nM
MCF7 [5] = assay: Induction of apoptosis in human MCF7 cells assessed as early apoptotic cells at 10 nM measured after 48 hrs by annexin-FITC and propidium iodide staining based flow cytometry analysis (reference value: 1.20%); type: functional
MCF7 [6] = assay: Induction of apoptosis in human MCF7 cells assessed as late apoptotic cells at 10 nM measured after 48 hrs by annexin-FITC and propidium iodide staining based flow cytometry analysis (reference value: 3.93%); type: functional
MCF7 [7] = assay: Inhibition of colony formation in human MCF7 cells at 5 to 10 nM incubated for 48 hrs; type: functional, cell-based; conditions: dose 5-10 nM
[8] = Antiproliferative activity against human HUVEC cells assessed as cell viability at 30 to 60 nM measured after 6 hrs by MTT assay relative to control; type: toxicity, cell-based; conditions: dose 30-60 nM, read-out: Activity
HT-29 = assay: Antiproliferative activity against human HT-29 cells assessed as inhibition of cell growth measured after 48 hrs by MTT assay; type: functional, cell-based; conditions: HT-29, 48 h
A2780 = assay: Antiproliferative activity against human A2780 cells assessed as inhibition of cell growth measured after 48 hrs by MTT assay; type: functional, cell-based; conditions: A2780, 48 h
SK-OV-3 = assay: Antiproliferative activity against human SK-OV-3 cells assessed as inhibition of cell growth measured after 48 hrs by MTT assay; type: functional, cell-based; conditions: SK-OV-3, 48 h
PANC-1 = assay: Antiproliferative activity against human PANC-1 assessed as inhibition of cell growth measured after 48 hrs by MTT assay; type: functional, cell-based; conditions: PANC-1, 48 h
U-87 MG = assay: Antiproliferative activity against human U-87 MG assessed as inhibition of cell growth measured after 48 hrs by MTT assay; type: functional, cell-based, U-87MG ATCC
[9] = Resistance index, ratio of IC50 for antiproliferative activity against paclitaxel resistant human A2780/Taxol cells to IC50 for antiproliferative activity against human A2780 cells; type: functional
[10] = Acute toxicity in ICR mouse assessed as animal death at 50 mg/kg, ip measured after upto 14 days; type: organism-based; conditions: in vivo, 336 h, time < 14 day
[11] = Acute toxicity in ICR mouse assessed as animal death at 100 mg/kg, ip measured after 3 to 14 days; type: organism-based; conditions: in vivo, time 3-14 day
[12] = Acute toxicity in ICR mouse assessed as animal death at 200 mg/kg, ip measured after 3 to 14 days; type: organism-based; conditions: in vivo, time 3-14 day
[13] = Acute toxicity in ICR mouse assessed as animal death at 300 mg/kg, ip measured after 2 days; type: organism-based; conditions: in vivo, 48 h, time 2 day
[14] = Acute toxicity in ICR mouse assessed as survival rate at 100 mg/kg, ip measured after 14 days relative to control; type: organism-based; conditions: in vivo, time 14 day
[15] = Acute toxicity in ICR mouse assessed as survival rate at 200 mg/kg, ip measured after 14 days relative to control; type: organism-based; conditions: in vivo, time 14 day
[16] = Toxicity in Balb/C nude mouse assessed as effect on body weight loss at 15 mg/kg, ip measured upto 2 weeks; type: organism-based; conditions: in vivo, 336 h
MDA-MB-231 [17] = assay: Antitumor activity against human MDA-MB-231 cells xenografted in BALB/c nude mouse model assessed as inhibition of tumor growth volume administered as IP dose measured after 14 days; type: functional; conditions: dose 7.5-15 mg/kg, time 14.0 day
MDA-MB-231 [18] = assay: Antitumor activity against human MDA-MB-231 cells xenografted in BALB/c nude mouse model assessed as tumor weight reduction at 7.5 mg/kg, ip measured after 14 days relative to control; type: functional; parameters: scale not given: the % may be the effect or the level left; conditions: time 14 day
MDA-MB-231 [19] = assay: Antitumor activity against human MDA-MB-231 cells xenografted in BALB/c nude mouse model assessed as tumor weight reduction at 15 mg/kg, ip measured after 14 days relative to control; type: functional; parameters: scale not given: the % may be the effect or the level left; conditions: time 14 day
[20] = Toxicity in Balb/C nude mouse xenografted with A549/Taxol assessed as effect on heart at 15 mg/kg, ip measured after 14 days by H and E staining based analysis; type: organism-based, A549/TR; conditions: in vivo, 336 h, time 14 day
[21] = Toxicity in Balb/C nude mouse xenografted with A549/Taxol assessed as effect on spleen at 15 mg/kg, ip measured after 14 days by H and E staining based analysis; type: organism-based, A549/TR; conditions: in vivo, 336 h, time 14 day
[22] = Toxicity in Balb/C nude mouse xenografted with A549/Taxol assessed as effect on lung at 15 mg/kg, ip measured after 14 days by H and E staining based analysis; type: organism-based, A549/TR; conditions: in vivo, 336 h, time 14 day
[23] = Toxicity in Balb/C nude mouse xenografted with A549/Taxol assessed as adverse effect at 15 mg/kg, ip measured after 14 days; type: organism-based, A549/TR; conditions: in vivo, 336 h, time 14 day
[24] = Toxicity in Balb/C nude mouse xenografted with A549/Taxol assessed as changes in blood routine parameters at 15 mg/kg, ip measured after 14 days by biochemical assay; type: organism-based, A549/TR; conditions: in vivo, 336 h, time 14 day
[25] = Water solubility of the compound at pH 7.4 by HPLC analysis; type: physicochemical
[26] = Stability in mouse plasma assessed as half life at 1 uM measured upto 120 mins by LC-MS/MS analysis; type: ADME, cell-free
[27] = Tmax in mouse at 3 mg/kg, iv measured upto 24 hrs by LC-MS/MS analysis; type: ADME, organism-based; conditions: in vivo
[28] = Cmax in mouse at 3 mg/kg, iv measured upto 24 hrs by LC-MS/MS analysis; type: ADME, organism-based; conditions: in vivo
[29] = Half life in mouse at 15 mg/kg, po measured upto 24 hrs by LC-MS/MS analysis; type: ADME, organism-based; conditions: in vivo
[30] = Cmax in mouse at 15 mg/kg, po measured upto 24 hrs by LC-MS/MS analysis; type: ADME, organism-based; conditions: in vivo
[31] = AUC (0 to t) in mouse at 15 mg/kg, po measured upto 24 hrs by LC-MS/MS analysis; type: ADME, organism-based; conditions: in vivo
[32] = MRT (0 to t) in mouse at 15 mg/kg, po measured upto 24 hrs by LC-MS/MS analysis; type: ADME, organism-based; conditions: in vivo
[33] = MRT (0 to infinity) in mouse at 15 mg/kg, po measured upto 24 hrs by LC-MS/MS analysis; type: ADME, organism-based; conditions: in vivo

T1 sequence (O75449 whole entry, the tested form may be a part): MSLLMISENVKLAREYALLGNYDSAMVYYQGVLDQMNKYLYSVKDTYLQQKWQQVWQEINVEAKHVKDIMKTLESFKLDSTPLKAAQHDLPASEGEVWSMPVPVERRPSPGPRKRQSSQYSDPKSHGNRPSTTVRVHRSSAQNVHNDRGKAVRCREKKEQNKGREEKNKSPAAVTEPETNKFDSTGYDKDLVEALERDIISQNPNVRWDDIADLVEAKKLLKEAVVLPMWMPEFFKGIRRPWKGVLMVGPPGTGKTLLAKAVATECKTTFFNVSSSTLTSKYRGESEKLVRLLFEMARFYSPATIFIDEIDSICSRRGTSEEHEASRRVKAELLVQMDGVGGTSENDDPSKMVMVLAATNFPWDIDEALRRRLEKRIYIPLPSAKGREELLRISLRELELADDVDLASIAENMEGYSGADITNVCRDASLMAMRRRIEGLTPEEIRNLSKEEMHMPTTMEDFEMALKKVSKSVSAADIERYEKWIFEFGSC

COc1cc(-n2cnc3ccc(-c4ccc(C)c(N)c4)nc32)cc(OC)c1OC
Kd [1]: > 50000 nM | Kd [2]: 1810 nM | Activity [3]: Active | Activity (MCF7 [4]): inactive | inhibition (Tubulin (Homo sapiens)): Active | Activity (MCF7 [5]): 29.59% | Activity (MCF7 [6]): 16.7% | inhibition (MCF7 [7]): Active | viability at 6 h, 0.06 µM [8]: > 90% | IC50 (HT-29): 11 nM | IC50 (A2780): 3 nM | IC50 (SK-OV-3): 0.8 nM | IC50 (PANC-1): 4 nM | IC50 (U-87 MG): 15 nM | Ratio IC50 [9]: 1.54 | Activity [10]: Non-Toxic | Activity [11]: Non-Toxic | Activity [12]: Non-Toxic | Activity [13]: Non-Toxic | survival at 336 h [14]: 80% | survival at 336 h [15]: 40% | Activity [16]: Non-Toxic | Activity (MDA-MB-231 [17]): Dose-Dependent Effect | Activity (MDA-MB-231 [18]): 63% | Activity (MDA-MB-231 [19]): 84% | Activity [20]: Non-Toxic | Activity [21]: Non-Toxic | Activity [22]: Non-Toxic | Activity [23]: Non-Toxic | Activity [24]: Toxic | solubility [25]: 30 µg/mL (≈ 76.8 µM) | half-life at 1 µM [26]: 39 h | Tmax [27]: 4.8 min | Cmax [28]: 1650 ng/mL | half-life [29]: 1.92 h | Cmax [30]: 1200 ng/mL | AUC(0-t) at 24 h [31]: 1240 ng·h/mL | MRT last at 24 h [32]: 1.83 h | MRT inf [33]: 2.47 h

Reference: ChEMBL document CHEMBL5523751, “Discovery of Novel Diaryl-Substituted Fused Heterocycles Targeting Katanin and Tubulin with Potent Antitumor and Antimultidrug Resistance Efficacy” (J Med Chem, 2024)
